Laboratory results as given in patent US20260355151A1, “SPIROCYCLIC DERIVATIVE-CONTAINING SALT OR CRYSTAL FORM, AND PREPARATION METHOD THEREFOR AND USE THEREOF” (SHUJING BIOPHARMA CO., LTD, priority 2022, published 2026).
Counter-ions that a name gives are not always drawn. Like-named read-outs stand apart in the source and are kept apart here.

Assays:
[1] = Equilibrium solubility in water for 24 hours; assay type: physicochemical; conditions: deionized water, 37 °C
Procedure: Investigating the equilibrium solubility of each hydrochloride crystal form of Compound A in water for 24 hours.
Excess samples of hydrochloride crystal form I and hydrochloride crystal form II of Compound A were weighed and placed in different 10 mL centrifuge tubes, and 1 mL of deionized water was added, sealed with a parafilm, shaking at a constant temperature of 37 °C and 150 rpm for 24 hours; after passing through a 0.45 μm organic filter, the sample was diluted and injected for HPLC analysis.

[2] = Solid stability experiment (high temperature, high humidity, light); assay type: physicochemical; conditions: for chemical stability: high temperature, high humidity, or illumination, conclusion in words; for degraded at 240 h / degraded at 480 h / degraded at 2040 h: solid, read-out: Increase of total impurities; for degraded at 240 h: day 10; for degraded at 480 h: day 20; for degraded at 2040 h: day 85
Procedure: Investigating the chemical stability of each hydrochloride crystal form of Compound A under high temperature, high humidity, and light conditions.
Appropriate amounts of hydrochloride crystal form I and hydrochloride crystal form II of Compound A were weighed and placed in weighing dishes respectively; three samples for each salt were prepared, and placed respectively in a oven at 60 °C, a drying dish with RH 92.5%, and a stability test chamber with an illumination condition of 5000 lx for 85 days. After mixing all samples evenly at day 0, day 10, day 20, and day 85, samples were taken and dissolved in acetonitrile and water, and the content and impurity changes were detected by HPLC-related substance detection method.

5-HT1A receptor = biological target: T1, 5-HT1A receptor (Homo sapiens, UniProt P08908); assay: 5-HT1A receptor cAMP agonist test; assay type: cell-based
T1 sequence (P08908 1-422): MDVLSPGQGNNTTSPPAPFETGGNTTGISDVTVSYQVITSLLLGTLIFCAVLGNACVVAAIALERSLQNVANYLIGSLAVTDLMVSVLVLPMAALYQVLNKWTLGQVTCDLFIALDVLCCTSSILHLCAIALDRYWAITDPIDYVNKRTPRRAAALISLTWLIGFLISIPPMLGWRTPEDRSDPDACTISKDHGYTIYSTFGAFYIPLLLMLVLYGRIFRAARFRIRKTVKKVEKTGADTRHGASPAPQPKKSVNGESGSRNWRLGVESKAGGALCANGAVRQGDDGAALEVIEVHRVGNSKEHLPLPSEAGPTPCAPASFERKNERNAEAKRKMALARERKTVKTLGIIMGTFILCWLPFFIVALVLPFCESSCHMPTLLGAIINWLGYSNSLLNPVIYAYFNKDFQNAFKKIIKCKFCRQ
From the text: The cAMP detection kit was purchased from Cisbio; the HEK293 cell line stably expressing 5-HT1A receptor was constructed by Shanghai Shujing Biotechnology Co., Ltd.; Serotonin, Forskolin and IBMX were purchased from Sigma; ProxiPlate-384-well plates was purchased from PerkinElmer; HBSS was purchased from Thermo Fisher Scientific.
Activation rate (activity %)=(negative control ratio-compound ratio)/(negative control ratio-positive control ratio)×100%

TAAR1 receptor = biological target: T2, TAAR1 receptor (Homo sapiens, UniProt Q96RJ0); assay: TAAR1 receptor cAMP agonist test; assay type: cell-based; parameters: Emax: dose or concentration left out as unconfirmed
T2 sequence (Q96RJ0 1-339): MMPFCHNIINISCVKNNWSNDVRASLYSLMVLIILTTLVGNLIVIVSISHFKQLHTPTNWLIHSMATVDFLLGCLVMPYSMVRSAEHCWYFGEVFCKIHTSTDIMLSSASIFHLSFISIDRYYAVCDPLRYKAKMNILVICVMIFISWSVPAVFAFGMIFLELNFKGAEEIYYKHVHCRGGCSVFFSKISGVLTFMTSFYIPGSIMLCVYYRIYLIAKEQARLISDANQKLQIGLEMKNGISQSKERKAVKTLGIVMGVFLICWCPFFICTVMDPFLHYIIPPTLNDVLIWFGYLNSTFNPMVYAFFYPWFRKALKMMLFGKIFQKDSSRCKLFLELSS
From the text: The cAMP detection kit was purchased from Cisbio; the […] cell line stably expressing TAAR1 receptor was constructed by Shanghai Shujing Biotechnology Co., Ltd.; IBMX was purchased from Sigma; Phenethylamine (PEA); ProxiPlate-384 well plate was purchased from PerkinElmer; HBSS was purchased from Thermo Fisher Scientific Company.

[3] = test system: high spontaneous activity induced by MK-801 in mice; assay: Inhibition of high spontaneous activity induced by MK-801 in mice; assay type: in vivo, male C57Bl/6J mice
Procedure: Compounds to be tested: compounds in the examples of the present application, self-made.
(§1) Experimental animals: 18-22 g male C57Bl/6J mice, purchased from Shanghai Slack Experimental Animal Co., Ltd.
(§2) before the start of the experiment, animals were randomly grouped according to body weight.
before the experiment, the mice were first adapted to the experimental environment for at least 1 hour. That is, the animals were transferred from the breeding room to the laboratory and moved freely in the cage.
(§3) Drug preparation: taking the compound to be tested, adding pure water and performing ultrasonication.
(§4) The animals were randomly divided into blank group, model group, and administration group according to body weight, 9 mice/group, and the detailed administration information is shown in the following table:
(§5) T-30 min oral administration of compound: compound to be tested or solvent (pure water) was administered orally by gavage, and put into test box (test box size length*width*height=27*27*40 cm) immediately after administration, recording the spontaneous activity of the mice within 30 minutes.
The blank control group was injected with normal saline.
(§6) The activities of these animals (movement distance in the test box) were automatically recorded by the camera, and analyzed with ANY MAZE software, and the ED50 values were calculated.

[4] = test system: high spontaneous activity induced by PCP in mice; assay: Inhibition of high spontaneous activity induced by PCP in mice; assay type: in vivo, male C57Bl/6J mice
From the text: Compounds to be tested: compounds of the examples of the present application, self-made.
Phencyclidine hydrochloride (PCP): purchased from Shanghai Yuansi Standard Science Technology Co., Ltd., specification: 5 g.
as §1, §2
before the experiment, the mice were first adapted to the experimental environment for at least 1 hour. That is, animals were transferred from the feeding room to the laboratory, and moved freely in the cage.
as §3, §4, §5
T0 min intraperitoneal injection of modeling drug: 30 minutes after compound administration, the mice were taken out, and administered with PCP (5 mg/kg) by intraperitoneal injection. The blank control group was injected with pure water. After the administration of PCP, the animals were immediately put back into the test box, and the test was continued for 60 minutes.
as §6

For `CNC[C@@H]1OCC2(CC2)c2sccc21` [Hydrochloride crystal form I, (R)-1-(4′H,6′H-spiro[cyclopropane-1,7′-thieno[3,2-c]pyran]-4′-yl)-N-methylmethylamine], the solubility thermodynamic at 24 h ([1]; water) was 155 mg/mL, the chemical stability [2] was “good chemical stability” and the degraded at 240 h ([2]; High humidity of RH 92.5%) was less than 0.1%. For the same compound, the degraded at 480 h ([2]; High humidity of RH 92.5%) was less than 0.1%, the degraded at 2040 h ([2]; High humidity of RH 92.5%) was 0.199% and the degraded at 240 h ([2]; Illumination of 5000 lx) was less than 0.1%. The degraded at 480 h ([2]; Illumination of 5000 lx) was less than 0.1% and the degraded at 2040 h ([2]; Illumination of 5000 lx) was less than 0.1%.

For `CNC[C@@H]1OCC2(CC2)c2sccc21` [Hydrochloride crystal form II, (R)-1-(4′H,6′H-spiro[cyclopropane-1,7′-thieno[3,2-c]pyran]-4′-yl)-N-methylmethylamine], the Equilibrium solubility ([1]; 1440 min) was 162.30 mg/mL, the chemical stability [2] was “good chemical stability” and the degraded at 240 h ([2]; High temperature of 60 °C) was less than 0.1%. It also gave a degraded at 480 h ([2]; High temperature of 60 °C) of less than 0.1% and a degraded at 2040 h ([2]; High temperature of 60 °C) of 0.133%.

With `CNC[C@@H]1OCC2(CC2)c2sccc21` (single isomer, unassigned) [Compound A] the Emax at 1 µM (5-HT1A receptor; activation rate, positive control Serotonin, final concentration 10^−6M, read-out: 5-HT1A Max Act %) was 95.2%, the “agonistic effect on 5-HT1A receptors” value (5-HT1A receptor; conclusion in words) was “has agonistic effect on 5-HT1A receptors” and the “agonist effect on the TAAR1 receptors” value (TAAR1 receptor; conclusion in words) was “have an agonist effect on the TAAR1 receptors”. For the same compound, the Emax (TAAR1 receptor; read-out: TAAR1 Max Act %) was 95.5%, the “inhibitory effect compared to SEP-363856” value ([3]; MK-801 model, conclusion in words) was “lower minimum effective dose and stronger inhibitory effect” and the minimal effective dose ([3]; Mus musculus, po, 2.5 h, p.o. 30 min before MK-801 0.3 mg/kg i.p., movement distance, 150 min, read-out: MED (minimum effective dose)) was 10 mg/kg. The “inhibition of high spontaneous activity induced by MK-801” value ([3]; p.o., conclusion in words) was “can significantly inhibit the high spontaneous activity induced by MK-801 in mice, and the inhibitory effect is gradually enhanced with the increase of the compound dosage, and there is a good dose-dependent relationship”, the minimal effective dose ([4]; Mus musculus, po, 1 h, p.o. 30 min before PCP 5 mg/kg i.p., movement distance, 60 min, read-out: MED (minimum effective dose)) was 0.1 mg/kg and the “inhibitory effect compared to SEP-363856” value ([4]; PCP model, conclusion in words) was “lower minimum effective dose and stronger inhibitory effect”. The “inhibition of high spontaneous activity induced by PCP” value ([4]; p.o., conclusion in words) was “can significantly inhibit the high spontaneous activity induced by PCP in mice, and the inhibitory effect is gradually enhanced with the increase of the compound dosage, and there is a good dose-dependent relationship”.
